Like-named read-outs stand apart in the source and are kept apart here. Where no end group is shown, it is not given here.

The term IC50 denotes the concentration at which inhibition is half-maximal. Usually MIC stands for the lowest concentration that inhibits growth of the organism. A lower MIC goes with inhibition by little substance.

One data set deals with Red blood cells (RBC). As to the kind of experiment: Red blood cell toxicity. The format is cell-based.
A further data set is described as follows: Red blood cell toxicity. Format: cell-based. As to conditions: red blood cells (RBC); RBCs; concentration required for 50% toxicity; read-out: TX50.
Another data set deals with T. vaginalis. The conditions noted are these: background statement; cited from earlier work.
Another data set has as its system P. aeruginosa ATCC 10145. The conditions noted are these: ATCC 10145.
Data set [1] concerns S. aureus (methicillin resistant) ATCC 33591. The conditions noted are these: ATCC 33591.
Another data set has as its system E. coli ATCC 2592. The conditions noted are these: ATCC 2592.
Data set [2] deals with rat prostate adenocarcinoma. As to conditions: rat prostate adenocarcinoma model, cited from earlier work.
A further data set deals with HeLa cell line. Kind of data set: HeLa MTS cellular reduction toxicity assay. The format is cell-based. The conditions noted are these: for TX50: 24 h, MTS. An outline of the steps:
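HeLa cells grown 48 h, then exposed to serial 2-fold peptide dilutions for 24 h at 37 °C, 5% CO2. MTS-PMS added for 1 h; absorbance at 490 nm compared with untreated cells. TX50 (50% toxicity concentration) from sigmoidal curve fit.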

For data set [3], the system named is herpes simplex virus (HSV). As to conditions: mixed with a modified lipid octyl-glycerol; compared with magainins and defensins; cited from earlier work.
The test system of the next data set is C. albicans 10231. The format is cell-based. As to conditions: 10231. The procedure, abridged:
(§1)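 Broth microdilution per NCCLS, adapted for fungi with Sabouraud Dextrose Broth; KFAK-repeat peptide multimers in two-fold dilutions from 1,000 to 1 μg/ml. Growth by OD620 after overnight incubation; IC50 by sigmoidal fit, in duplicate, repeated at least twice.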

Another data set concerns Cr. Neoformans 32045. Format: cell-based. The procedure, abridged: as §1
A further data set deals with C. trachomatis. The conditions noted are these: background statement; cited from earlier work.
The next data set deals with P. aeruginosa. The conditions noted are these: background statement; cited from earlier work.
In data set [4] the test system is Staph. aureus ATCC 6538. Kind of data set: HMARQ biocidal kill activity. As to conditions: Staph. aureus ATCC 6538, 15 min, 3 log kill. The format is cell-based.
Data set [5] relates to Staph. aureus ATCC 6538. As to the kind of experiment: HMARQ biocidal kill activity. Format: cell-based. As to conditions: Staph. aureus ATCC 6538 (gram+). An outline of the steps:
(§2)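 Inoculated sample matrix (200–300 μL) added to biocide in 96-well blocks alongside untreated controls; for kill-time runs organisms added after biocide. Viable counts by MPN serial 1:10 dilution in TSB with 50 μM resazurin indicator; values are ppm (μg/mL) giving 3.5 log kill versus untreated at 15 min or 24 h.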

The subject of data set [6] is P. aeruginosa ATCC 15442. As to the kind of experiment: HMARQ biocidal kill activity. The conditions noted are these: P. aeruginosa ATCC 15442 (gram−). Format: cell-based. The procedure, abridged: as §2
Data set [7] concerns P. aeruginosa ATCC 15442. Kind of data set: HMARQ biocidal kill activity. Format: cell-based. The conditions noted are these: P. aeruginosa ATCC 15442, 15 min, 3 log kill.

With “FAKKFAKKFKKFAKKFAKFAFAF [D2A21, reference compound]”, the “% kill at 250 μg/ml” value in the data set on Red blood cells (RBC) (RBCs, 250 μg/ml) is reported as 93.1%. Further, the HC50 at 24 h in the data set “Red blood cell toxicity” came out at 52 µg/mL. In addition, the “activity (statement)” value with T. vaginalis, in the data set with C. trachomatis and with P. aeruginosa was “has activity against” each time. Further, the IC50 in the data set on P. aeruginosa ATCC 10145 amounted to 11.3 µg/mL; in data set [1] it was 11.9 µg/mL; in the data set with E. coli ATCC 2592, 4.5 µg/mL; in the data set with C. albicans 10231, 121.5 µg/mL; with Cr. Neoformans 32045, 21.9 µg/mL. The MIC in data set [1] is 62 to 125 µg/mL; with E. coli ATCC 2592 it was 8 to 16 µg/mL; with C. albicans 10231, over 250 µg/mL; with Cr. Neoformans 32045, 62 to 125 µg/mL. In addition, the survival rate in [2] (improved from 25%, preliminary results (Arlotti 2001)) was 75%. Also, in data set [2], the toxicities entry is “not causing any significant toxicities”. Further, the “% kill at 500 μg/ml” value in the data set with HeLa cell line turned out to be 7.1%. Further, the TX50 with HeLa cell line is 16.9 µg/mL. The “activity against HSV compared with other peptides” value in data set [3] is “better than five other peptides”.

In the case of “KFAK KFAK KFAK KFAK KFAK KFAK KFAK KFAK KFAK KFAK KFAK KFAK (KFAKKFAKKFAKKFAKKFAKKFAKKFAKKFAKKFAKKFAKKFAKKFAK; Periodic Peptide) [KFAK(12)]”, the “ppm at 15 min, cell marked (3 log)” value in the data set on Staph. aureus ATCC 6538 [4] is 31(3 log) ppm. Moreover, the “ppm needed for 3.5 log kill at 24 hr” value is listed as over 500 ppm with Staph. aureus ATCC 6538 [5] and 31 ppm in the data set with P. aeruginosa ATCC 15442 [6]. In the data set with P. aeruginosa ATCC 15442 [6] (15 min), the “ppm needed for 3.5 log kill at 15 min” value is 16 ppm.

With “LKLKLKLKLKLKLKLKLKLKLKLK [LK (12), LK LK LK LK LK LK LK LK LK LK LK LK]”, the “% kill at 250 μg/ml” value with Red blood cells (RBC) was 35%. For the same substance, in the data set “Red blood cell toxicity”, the HC50 at 24 h was over 500 µg/mL. Besides, the IC50 with P. aeruginosa ATCC 10145 is 41 µg/mL; in [1] it was 85 µg/mL; with E. coli ATCC 2592 it was 23 µg/mL; in the data set on C. albicans 10231, 175 µg/mL; in the data set with Cr. Neoformans 32045, 22 µg/mL. The MIC in the data set on P. aeruginosa ATCC 10145 was 45 µg/mL; in [1], over 250 µg/mL; in the data set with E. coli ATCC 2592, 62 to 125 µg/mL; in the data set on C. albicans 10231 it was 250 to 500 µg/mL; against Cr. Neoformans 32045, 32 to 62 µg/mL. For the same substance, the “ppm at 15 min, cell marked (3 log)” value in the data set on P. aeruginosa ATCC 15442 [7] was 16 (3 log) ppm. Besides, the “% kill at 500 μg/ml” value in the data set on HeLa cell line is given as 60.0%. Moreover, the TX50 in the data set with HeLa cell line amounted to 49 µg/mL. For the same substance, the “ppm needed for 3.5 log kill at 15 min” value with Staph. aureus ATCC 6538 [5] (15 min) turned out to be 4 ppm. Moreover, the entries for the “ppm needed for 3.5 log kill at 24 hr” value in the data set on Staph. aureus ATCC 6538 [5] and with P. aeruginosa ATCC 15442 [6] were 8 ppm and 4 ppm, respectively.
